Data reported in article PMC7462507, “Noncompetitive Inhibition of Bovine Liver Catalase by Lawsone: Kinetics, Binding Mechanism and in silico Modeling Approaches” (Iranian Journal of Pharmaceutical Research : IJPR, 2020).

Target: T1, bovine liver catalase (BLC) (Bos taurus, UniProt P00432)
T1 construct: gene CAT
T1 sequence (P00432 2-527): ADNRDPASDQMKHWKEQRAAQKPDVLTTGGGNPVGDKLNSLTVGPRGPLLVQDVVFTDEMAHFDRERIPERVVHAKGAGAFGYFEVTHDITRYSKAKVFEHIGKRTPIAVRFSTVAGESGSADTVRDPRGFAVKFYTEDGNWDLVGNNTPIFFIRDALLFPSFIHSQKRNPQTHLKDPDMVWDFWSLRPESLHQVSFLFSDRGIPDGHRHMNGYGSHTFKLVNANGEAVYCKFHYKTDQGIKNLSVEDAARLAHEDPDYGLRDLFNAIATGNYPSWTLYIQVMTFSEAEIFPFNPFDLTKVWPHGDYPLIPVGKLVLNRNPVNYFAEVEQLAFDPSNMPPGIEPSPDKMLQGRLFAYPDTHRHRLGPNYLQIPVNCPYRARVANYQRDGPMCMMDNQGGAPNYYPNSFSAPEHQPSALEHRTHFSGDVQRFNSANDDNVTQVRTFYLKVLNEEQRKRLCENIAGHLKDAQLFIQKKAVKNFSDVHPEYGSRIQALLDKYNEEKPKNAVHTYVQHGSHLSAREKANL
Assay: UV kinetics of H2O2 decomposition at […] nm, Lineweaver-Burk (IC50 about […]); supported by fluorescence quenching, UV-vis and ATR-FTIR
Assay type: biochemical

For `O=C1C=C(O)C(=O)c2ccccc21` [LAW, 2-hydroxy-1,4-naphtoquinone], the Ki was 15.8 µM.
